From patent US11833156B2, “Heterocyclic compounds as pad inhibitors” (JUBILANT EPIPAD LLC, priority 2017, dated 2023)

Experiments:
PAD4 enzyme [1] = molecular target: T1, PAD4 enzyme (Homo sapiens (Human), UniProt Q9UM07); assay: Ammonia Release Biochemical Assay (citrullination detected via ammonia release); conditions: PAD4 120 nM, substrate BAEE, 60-min preincubation, read-out: NH3 release
Method: Ammonia Release Biochemical Assay
Citrullination assay was detected via ammonia release. PAD4 enzyme was diluted to 120 nM in assay buffer (100 mM HEPES, 50 mM NaCl, 2 mM DDT, 0.6 mg/mL BSA, pH 7.4) added to wells containing various concentration of compound or DMSO vehicle (1% final) in black 384 well plate. Following a 60-min preincubation at room temperature, the reaction was initiated by the addition of substrate (1.5 mM BAEE in 200 mM HEPES, 50 mM NaCl, 350 uM CaCl2, 2 mM, pH 7.4). The reaction was stopped after 60 min by addition of stop/detection buffer containing 50 mM EDTA, 2.6 mM of o-phthaladehyde and 2.6 mM DTT. Assay was incubated at room temperature for 90 min before measuring fluorescence's (λex 405/λem 460 nm) on Tecan reader. IC50 was calculated using XL-fit software model 205. (Ref: Nat Chem Biol. 2015 March; 11(3):189-91).

PAD4 enzyme [2] = molecular target: T1, PAD4 enzyme; assay: FP Binding Assay; conditions: for IC50: PAD4 1 uM, 10 nM fluorescein labelled probe JPAD-00085
Method: Binding of compounds with PAD4 enzyme was detected by FP assay. PAD4 enzyme was diluted to 1 uM in assay buffer (100 mM HEPES, 50 mM NaCl, 1 mM DTT, 5% Glycerol and 1 mM CHAPS) and added to wells containing various concentration of compounds or DMSO vehicle (1%) in a 384 well black plate. 10 nM of fluorescein labelled probe (JPAD-00085) was added to the plate. Assay plate was incubated for 60 minutes at room temperature before measuring FP reading at FP module (λex 485/λem 535 nm) on Pherastar. IC50 was calculated using XL-fit software model 205. (Ref: Nat Chem Biol. 2015 March; 11(3):189-91).

T1 sequence (Q9UM07 whole entry): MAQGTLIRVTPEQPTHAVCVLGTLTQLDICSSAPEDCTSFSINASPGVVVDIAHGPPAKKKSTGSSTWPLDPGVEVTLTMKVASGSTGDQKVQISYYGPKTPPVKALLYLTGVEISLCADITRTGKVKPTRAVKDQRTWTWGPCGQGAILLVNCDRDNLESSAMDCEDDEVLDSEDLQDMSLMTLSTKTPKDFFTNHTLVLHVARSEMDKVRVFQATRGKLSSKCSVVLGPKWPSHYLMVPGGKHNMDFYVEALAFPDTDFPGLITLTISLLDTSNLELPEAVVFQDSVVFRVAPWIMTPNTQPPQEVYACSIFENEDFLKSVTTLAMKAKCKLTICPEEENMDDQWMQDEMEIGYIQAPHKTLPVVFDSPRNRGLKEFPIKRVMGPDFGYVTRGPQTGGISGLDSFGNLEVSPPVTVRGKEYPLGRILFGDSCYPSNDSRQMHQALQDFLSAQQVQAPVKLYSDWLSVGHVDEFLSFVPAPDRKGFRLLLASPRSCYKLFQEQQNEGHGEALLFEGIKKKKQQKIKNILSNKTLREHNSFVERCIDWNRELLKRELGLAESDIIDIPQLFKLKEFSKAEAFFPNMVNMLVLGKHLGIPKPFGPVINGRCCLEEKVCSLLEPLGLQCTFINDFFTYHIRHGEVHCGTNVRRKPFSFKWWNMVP

Row | IC50 (PAD4 enzyme [1]) [nM] | IC50 (PAD4 enzyme [2]) [nM] | inhibition of PAD4 enzyme activity in FP Binding assay (PAD4 enzyme [2]) | Compound
1 | ≤ 1000 | 1000 to 10000 | – | N[C@@H]1CCCN(C(=O)c2cc3c4c(c2)nc(-c2cc5ccccc5n2Cc2ccc(F)cc2)n4CCO3)C1 [Example 15, (R)-(3-aminopiperidin-1-yl)(2-(1-(4-fluorobenzyl)-1H-indol-2-yl)-3,4-dihydro-5-oxa-1,2a-diazaacenaphthylen-7-yl)methanone]
2 | 1000 to 10000 | – | actively inhibiting PAD4 enzyme activity | N[C@@H]1CCCN(C(=O)c2cc3c4c(c2)nc(-c2cc5ccccc5n2Cc2ccccc2F)n4CCO3)C1 [Example 14, (R)-(3-aminopiperidin-1-yl)(2-(1-(2-fluorobenzyl)-1H-indol-2-yl)-3,4-dihydro-5-oxa-1,2a-diazaacenaphthylene-7-yl)methanone]
3 | – | – | actively inhibiting PAD4 enzyme activity | N[C@@H]1CCCN(C(=O)c2cc3c4c(c2)nc(-c2cc5cc(F)c(F)cc5n2CC2CC2)n4CCN3)C1 [Example 77, (R)-(3-aminopiperidin-1-yl)(2-(1-(cyclopropylmethyl)-5,6-difluoro-1H-indol-2-yl)-5,6-dihydro-4H-imidazo[1,5,4-de]quinoxalin-8-yl)methanone]
4 | ≤ 1000 | ≤ 1000 | – | N[C@@H]1CCCN(C(=O)c2cc3c4c(c2)nc(-c2cc5cc(F)ccc5n2CC2CC2)n4CCO3)C1 [Example 9, (R)-(3-aminopiperidin-1-yl)(2-(1-(cyclopropylmethyl)-5-fluoro-1H-indol-2-yl)-3,4-dihydro-5-oxa-1,2a-diazaacenaphthylen-7-yl)methanone]
5 | – | 1000 to 10000 | – | N[C@@H]1CCCN(C(=O)c2cc3c4c(c2)nc(-c2cc5ccccc5n2CC2CC2)n4CCO3)C1 [Example 1, (R)-(3-aminopiperidin-1-yl)(2-(1-(cyclopropylmethyl)-1H-indol-2-yl)-3,4-dihydro-5-oxa-1,2a-diazaacenaphthylen-7-yl)methanone]
6 | ≤ 1000 | ≤ 1000 | – | N[C@@H]1CCCN(C(=O)c2cc3c4c(c2)nc(-c2cc5ccc(F)cc5n2CC2CC2)n4CCN3)C1 [Example 65, (R)-(3-aminopiperidin-1-yl)(2-(1-(cyclopropylmethyl)-6-fluoro-1H-indol-2-yl)-5,6-dihydro-4H-imidazo [1,5,4-de]quinoxalin-8-yl)methanone]
7 | ≤ 1000 | 1000 to 10000 | – | COc1cc2cc(-c3nc4cc(C(=O)N5CCC[C@@H](N)C5)cc5c4n3CCO5)n(CC3CC3)c2cc1OC [Example 17, (R)-(3-aminopiperidin-1-yl)(2-(1-(cyclopropylmethyl)-5,6-dimethoxy-1H-indol-2-yl)-3,4-dihydro-5-oxa-1,2a-diazaacenaphthylen-7-yl)methanone]
8 | 1000 to 10000 | 1000 to 10000 | – | CCn1c(-c2nc3cc(C(=O)N4CCC[C@@H](N)C4)cc4c3n2CCO4)cc2cccnc21 [Example 5, (R)-(3-aminopiperidin-1-yl)(2-(1-ethyl-1H-pyrrolo[2,3-b]pyridin-2-yl)-3,4-dihydro-5-oxa-1,2a-diazaacenaphthylen-7-yl)methanone]
9 | ≤ 1000 | 1000 to 10000 | – | N[C@@H]1CCCN(C(=O)c2cc3c4c(c2)nc(-c2cc5ccccc5n2Cc2cccnc2)n4CCO3)C1 [Example 16, (R)-(3-aminopiperidin-1-yl)(2-(1-(pyridin-3-ylmethyl)-1H-indol-2-yl)-3,4-dihydro-5-oxa-1,2a-diazaacenaphthylen-7-yl)methanone]
10 | ≤ 1000 | 1000 to 10000 | – | N[C@@H]1CCCN(C(=O)c2cc3c4c(c2)nc(-c2cc5ccccc5n2Cc2ccc(Cl)cc2)n4CCO3)C1 [Example 13, (R)-(3-aminopiperidin-1-yl)(2-(1-(4-chlorobenzyl)-1H-indol-2-yl)-3,4-dihydro-5-oxa-1,2a-diazaacenaphthylene-7-yl)methanone]
11 | ≤ 1000 | 1000 to 10000 | – | N[C@@H]1CCCN(C(=O)c2cc3c4c(c2)nc(-c2cc5ccccc5n2Cc2ccccc2)n4CCO3)C1 [Example 18, (R)-(3-aminopiperidin-1-yl)(2-(1-benzyl-1H-indol-2-yl)-3,4-dihydro-5-oxa-1,2a-diazaacenaphthylen-7-yl)methanone]
12 | ≤ 1000 | 1000 to 10000 | – | CS(=O)(=O)N1CCn2c(-c3cc4ccccc4n3CC3CC3)nc3cc(C(=O)N4CCC[C@@H](N)C4)cc1c32 [Example 76, (R)-(3-aminopiperidin-1-yl)(2-(1-(cyclopropylmethyl)-1H-indol-2-yl)-6-(methylsulfonyl)-5,6-dihydro-4H-imidazo[1,5,4-de]quinoxalin-8-yl)methanone]
13 | – | – | actively inhibiting PAD4 enzyme activity | CN1CCn2c(-c3cc4ccccc4n3CC3CC3)nc3cc(C(=O)N4CCC[C@@H](N)C4)cc1c32 [Example 72, (R)-(3-aminopiperidin-1-yl)(2-(1-(cyclopropylmethyl)-1H-indol-2-yl)-6-methyl-5,6-dihydro-4H-imidazo[1,5,4-de]quinoxalin-8-yl)methanone]
14 | ≤ 1000 | – | – | N[C@@H]1CCCN(C(=O)c2cc3c4c(c2)nc(-c2cc5ccccc5n2Cc2ccccc2F)n4CCN3)C1 [Example 70, (R)-(3-aminopiperidin-1-yl)(2-(1-(2-fluorobenzyl)-1H-indol-2-yl)-5,6-dihydro-4H-imidazo[1,5,4-de]quinoxalin-8-yl)methanone]
15 | – | – | actively inhibiting PAD4 enzyme activity | COc1ccc(Cn2c(-c3nc4cc(C(=O)N5CCC[C@@H](N)C5)cc5c4n3CCO5)cc3ccccc32)cc1 [Example 19, (R)-(3-aminopiperidin-1-yl)(2-(1-(4-methoxybenzyl)-1H-indol-2-yl)-3,4-dihydro-5-oxa-1,2a-diazaacenaphthylen-7-yl)methanone]
16 | 1000 to 10000 | – | – | N[C@@H]1CCCN(C(=O)c2cc3c4c(c2)nc(-c2cc5ccccc5n2Cc2cncnc2)n4CCO3)C1 [Example 29, (R)-(3-aminopiperidin-1-yl)(2-(1-(pyrimidin-5-ylmethyl)-1H-indol-2-yl)-3,4-dihydro-5-oxa-1,2a-diazaacenaphthylen-7-yl)methanone]
17 | ≤ 1000 | – | – | Cc1csc(Cn2c(-c3nc4cc(C(=O)N5CCC[C@@H](N)C5)cc5c4n3CCO5)cc3ccccc32)n1 [Example 59, (R)-(3-aminopiperidin-1-yl)(2-(1-((4-methylthiazol-2-yl)methyl)-1H-indol-2-yl)-3,4-dihydro-5-oxa-1,2a-diazaacenaphthylen-7-yl)methanone]
18 | – | – | actively inhibiting PAD4 enzyme activity | COc1ccc2cc(-c3nc4cc(C(=O)N5CCC[C@@H](N)C5)cc5c4n3CCN5)n(CC3CC3)c2c1 [Example 73, (R)-(3-aminopiperidin-1-yl)(2-(1-(cyclopropylmethyl)-6-methoxy-1H-indol-2-yl)-5,6-dihydro-4H-imidazo[1,5,4-de]quinoxalin-8-yl)methanone]
19 | ≤ 1000 | – | – | N[C@@H]1CCCN(C(=O)c2cc3c4c(c2)nc(-c2cc5cccc(Cl)c5n2CC(F)F)n4CCO3)C1 [Example 56, (R)-(3-aminopiperidin-1-yl)(2-(7-chloro-1-(2,2-difluoroethyl)-1H-indol-2-yl)-3,4-dihydro-5-oxa-1,2a-diazaacenaphthylen-7-yl)methanone]
20 | ≤ 1000 | 1000 to 10000 | – | N[C@@H]1CCCN(C(=O)c2cc3c4c(c2)nc(-c2cc5ccccc5n2Cc2cccnc2)n4CCN3)C1 [Example 66, (R)-(3-aminopiperidin-1-yl)(2-(1-(pyridin-3-ylmethyl)-1H-indol-2-yl)-5,6-dihydro-4H-imidazo [1,5,4-de]quinoxalin-8-yl)methanone]
21 | ≤ 1000 | – | – | N[C@@H]1CCCN(C(=O)c2cc3c4c(c2)nc(-c2cc5ccc(F)cc5n2CC2CC2)n4CCO3)C1 [Example 28, (R)-(3-aminopiperidin-1-yl)(2-(1-(cyclopropylmethyl)-6-fluoro-1H-indol-2-yl)-3,4-dihydro-5-oxa-1,2a-diazaacenaphthylen-7-yl)methanone]
22 | 1000 to 10000 | – | – | N[C@@H]1CCCN(C(=O)c2cc3c4c(c2)nc(-c2cc5ccccc5n2CC2CC2)n4CCN3S(=O)(=O)CCc2ccccc2)C1 [Example 79, (R)-(3-aminopiperidin-1-yl)(2-(1-(cyclopropylmethyl)-1H-indol-2-yl)-6-(phenethylsulfonyl)-5,6-dihydro-4H-imidazo[1,5,4-de]quinoxalin-8-yl)methanone]
23 | 1000 to 10000 | – | – | COCCn1c(-c2nc3cc(C(=O)N4CCC[C@@H](N)C4)cc4c3n2CCO4)cc2cc(F)c(F)cc21 [Example 54, (R)-(3-aminopiperidin-1-yl)(2-(5,6-difluoro-1-(2-methoxyethyl)-1H-indol-2-yl)-3,4-dihydro-5-oxa-1,2a-diazaacenaphthylen-7-yl)methanone]
24 | ≤ 1000 | – | – | CC(=O)N1CCn2c(-c3cc4ccccc4n3CC3CC3)nc3cc(C(=O)N4CCC[C@@H](N)C4)cc1c32 [Example 85]
